Values quoted from earlier work, collected in US20030167999A1, “Crystal” (priority 2000, published 2003).

Assays:
wild-type hPR = molecular target: T1, wild-type hPR (Homo sapiens, UniProt P06401); conditions: with respect to progesterone (RBA=100)
T1 sequence (P06401 1-933): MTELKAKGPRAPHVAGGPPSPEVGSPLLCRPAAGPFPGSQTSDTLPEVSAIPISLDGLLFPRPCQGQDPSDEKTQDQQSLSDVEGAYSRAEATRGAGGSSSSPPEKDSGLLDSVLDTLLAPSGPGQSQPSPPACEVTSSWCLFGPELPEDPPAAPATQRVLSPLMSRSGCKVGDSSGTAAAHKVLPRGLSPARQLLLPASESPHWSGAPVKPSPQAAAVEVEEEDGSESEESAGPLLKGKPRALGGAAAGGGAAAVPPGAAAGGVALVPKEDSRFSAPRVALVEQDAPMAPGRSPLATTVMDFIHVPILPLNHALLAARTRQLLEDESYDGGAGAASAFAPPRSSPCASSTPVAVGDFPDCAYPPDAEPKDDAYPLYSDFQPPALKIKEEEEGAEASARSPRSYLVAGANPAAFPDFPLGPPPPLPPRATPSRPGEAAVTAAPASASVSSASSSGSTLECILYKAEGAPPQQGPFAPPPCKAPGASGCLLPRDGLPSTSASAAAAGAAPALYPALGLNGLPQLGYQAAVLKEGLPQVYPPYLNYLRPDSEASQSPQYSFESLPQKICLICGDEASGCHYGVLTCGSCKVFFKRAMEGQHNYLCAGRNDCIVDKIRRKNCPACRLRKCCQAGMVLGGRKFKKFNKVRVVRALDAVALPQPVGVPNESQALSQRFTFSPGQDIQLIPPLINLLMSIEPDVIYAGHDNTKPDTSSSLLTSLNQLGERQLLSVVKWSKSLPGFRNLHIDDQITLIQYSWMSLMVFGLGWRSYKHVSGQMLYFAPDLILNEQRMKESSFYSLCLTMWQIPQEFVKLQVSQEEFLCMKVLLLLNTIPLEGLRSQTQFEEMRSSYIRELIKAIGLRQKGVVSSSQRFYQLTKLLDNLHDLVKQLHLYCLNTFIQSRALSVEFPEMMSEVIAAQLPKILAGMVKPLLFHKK

wild-type hAR = wild-type hAR (Homo sapiens, UniProt P10275)
[1] = molecular target: AR receptor of LNCaP (T877A) (Homo sapiens, UniProt P10275, T878A); conditions: single point mutation T877A
hAR mutant L707R = hAR mutant L707R (Homo sapiens, UniProt P10275, L708R); conditions: Scatchard plot analysis
hAR mutation F764S = hAR mutation F764S (Homo sapiens, UniProt P10275, F765S)
hAR M742V = hAR M742V (Homo sapiens, UniProt P10275, M743V)
hAR M7421 = hAR M7421 (Homo sapiens, UniProt P10275, M743I)
hAR LBD M787V = hAR LBD M787V (Homo sapiens, UniProt P10275, M788V)
Chain of hAR LBD M787V (P10275 whole entry M788V, the tested form may be a part): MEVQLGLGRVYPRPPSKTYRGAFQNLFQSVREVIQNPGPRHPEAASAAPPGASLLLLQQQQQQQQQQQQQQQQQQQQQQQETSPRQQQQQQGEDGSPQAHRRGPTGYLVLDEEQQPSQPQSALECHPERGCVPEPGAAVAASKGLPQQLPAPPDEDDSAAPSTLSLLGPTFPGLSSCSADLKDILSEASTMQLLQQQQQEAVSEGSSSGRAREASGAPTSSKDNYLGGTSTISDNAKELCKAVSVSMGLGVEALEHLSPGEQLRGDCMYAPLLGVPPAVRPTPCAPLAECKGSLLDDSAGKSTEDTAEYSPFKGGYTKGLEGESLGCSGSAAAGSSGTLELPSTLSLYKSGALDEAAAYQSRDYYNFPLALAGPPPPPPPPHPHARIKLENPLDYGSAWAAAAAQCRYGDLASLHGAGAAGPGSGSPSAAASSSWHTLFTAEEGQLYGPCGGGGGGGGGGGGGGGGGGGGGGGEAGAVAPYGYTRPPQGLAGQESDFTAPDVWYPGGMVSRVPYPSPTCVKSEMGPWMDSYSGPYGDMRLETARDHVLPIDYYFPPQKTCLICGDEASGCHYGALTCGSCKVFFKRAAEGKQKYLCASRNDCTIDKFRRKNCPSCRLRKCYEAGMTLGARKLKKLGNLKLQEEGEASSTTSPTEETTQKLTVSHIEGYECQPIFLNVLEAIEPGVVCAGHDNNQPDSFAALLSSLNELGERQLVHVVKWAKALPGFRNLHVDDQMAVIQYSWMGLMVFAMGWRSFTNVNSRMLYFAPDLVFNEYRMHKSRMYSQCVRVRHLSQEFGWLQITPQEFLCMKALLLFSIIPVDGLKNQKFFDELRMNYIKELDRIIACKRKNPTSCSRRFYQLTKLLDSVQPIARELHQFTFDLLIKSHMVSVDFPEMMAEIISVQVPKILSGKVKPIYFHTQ

Chain of hAR M7421 (P10275 whole entry M743I, the tested form may be a part): as the sequence (P10275 whole entry M788V, the tested form may be a part) above, with M743I, V788M counted along it
Chain of hAR mutant L707R (P10275 whole entry L708R): as the sequence (P10275 whole entry M788V, the tested form may be a part) above, with L708R, V788M counted along it
Chain of hAR M742V (P10275 whole entry M743V): as the sequence (P10275 whole entry M788V, the tested form may be a part) above, with M743V, V788M counted along it
Chain of AR receptor of LNCaP (T877A) (P10275 whole entry T878A): as the sequence (P10275 whole entry M788V, the tested form may be a part) above, with V788M, T878A counted along it
Chain of wild-type hAR (P10275 whole entry): as the sequence (P10275 whole entry M788V, the tested form may be a part) above, with V788M counted along it
Chain of hAR mutation F764S (P10275 whole entry F765S): as the sequence (P10275 whole entry M788V, the tested form may be a part) above, with F765S, V788M counted along it

C[C@]1(O)CC[C@H]2[C@@H]3CCC4=CC(=O)CCC4=C3C=C[C@@]21C [R1881, metribolone]
relative binding affinity (RBA) (wild-type hPR): 190 | relative binding affinity (RBA) (wild-type hAR): 290 | R1881 binding versus wild type [1]: identical | binding affinity (hAR mutant L707R): undetectable | ligand dissociation (hAR mutation F764S): rapid ligand dissociation | effect of mutation on binding affinity (hAR M742V): dramatically reduce | effect of mutation on binding affinity (hAR M7421): dramatically reduce | binding (hAR LBD M787V): undetectable or strongly reduced
